These results are taken from patent US20170042991A1, “COMPOSITIONS COMPRISING GLUTEN PEPTIDES AND USES THEREOF” (ImmusanT, Inc., priority 2014, published 2017).

Non-standard residues stand in square brackets, D forms with d. pGlu = O=C1CC[C@@H](C(=O)O)N1

This experiment deals with gluten-reactive T cells. Nature of the experiment: Cytokine release assays taken together (IFNγ ELISpot, whole blood IFNγ and IP-10 release). Type of experiment: cell-based, human. The conditions noted are these: for relative activity among individual peptides tested: blood collected after oral gluten challenge, HLA-DQ2.5+ subjects. The procedure: Gluten peptide solutions for addition to whole blood were arranged according to standardized templates in sterile 96-well U-bottom plates (30 μL/well). Plates were sealed with adhesive ELISA plate cover slips before the plastic lid was replaced and being frozen at −80° C. Whole blood assay (WBA) “medium” (1% DMSO in 90% PBS and 9% normal saline), mitogen (PHA-L, Sigma-Aldrich #L2769; St Louis Mo.) 100 μg/ml in WBA medium, and CEF diluted to 10 μg/ml in PBS with a final concentration of 1% DMSO were frozen separately in sterile cryovials. 96-well plates and cryovials with frozen incubation solutions were shipped on dry ice to the clinical site where blood was collected and incubations performed. Solutions were thawed at room temperature for 10 min just before being added to whole blood. 96-well plates were thawed while being centrifuged at 300 g to avoid surface condensation. A multi-channel pipette was used to efficiently transfer 25 μL of peptide solutions from the original 96-well plate to corresponding wells in a fresh sterile 96-well U-bottom plate. Once incubation solutions had been added, 225 μL of whole blood was added to each well and the plate transferred to incubate for 24 h at 37° C. 5% CO2. […] Individual peptides were incubated at a final assay concentration of 5 μM. Final concentrations of individual peptides assessed in P3 was 0.05-50 μg/mL, and in P14 and P13 pools 0.025-25 μM. The P71 pool was tested at between 0.005-10 μg/mL, the highest tested concentration being the maximal possible not exceeding 0.1% DMSO. Peptide pools, mitogen, and medium only were assessed in triplicate wells, and on Day-6 individual peptides were assessed in duplicate wells. Incubations were terminated after 24 h, and 96-well plates centrifuged at 300 g for 10 min. A total of approximately 90 to 120 μL of plasma was removed from each well taking care to avoid red cell contamination, and transferred into corresponding wells of two further 96-well plates (one with 30 μL/well and the residual in the second plate). Plasmas were frozen at −80° C. and later shipped on dry ice to the central lab where IP-10 and IFNγ multiplex bead assays were performed according to manufacturer's instructions using 25 μL plasma per well (Milliplex® MAP Human Cytokine/Chemokine Magnetic Bead Panel #HCYTOMAG-60k-02; EMD Millipore Corp., Billerica, Mass. 01821) and analysed with the Luminex® MAGPIX® System xPONENT® software (Luminex Corporation, Austin Tex. 78727). Plasma cytokine levels for each assay condition were expressed as the mean analyte concentration of each of the three replicate incubations. Laboratory staff were unaware of the arrangement of peptide solutions incubated with during assay setup and plate counting. […]

Regarding “(pE)PEQPIPEQPQPYPQQ-amide ([pGlu]PEQPIPEQPQPYPQQ-NH2; SMILES CC[C@H](C)[C@H](NC(=O)[C@@H]1CCCN1C(=O)[C@H](CCC(N)=O)NC(=O)[C@H](CCC(=O)O)NC(=O)[C@@H]1CCCN1C(=O)[C@@H]1CCC(=O)N1)C(=O)N1CCC[C@H]1C(=O)N[C@@H](CCC(=O)O)C(=O)N[C@@H](CCC(N)=O)C(=O)N1CCC[C@H]1C(=O)N[C@@H](CCC(N)=O)C(=O)N1CCC[C@H]1C(=O)N[C@@H](Cc1ccc(O)cc1)C(=O)N1CCC[C@H]1C(=O)N[C@@H](CCC(N)=O)C(=O)N[C@@H](CCC(N)=O)C(N)=O) [Peptide 3]”, the “relative activity among individual peptides tested” value was “consistently the second most active peptide after Peptide 14”.

Consider “(pE)LQPFPQPELPYPQPQ-amide ([pGlu]LQPFPQPELPYPQPQ-NH2; SMILES CC(C)C[C@H](NC(=O)[C@@H]1CCC(=O)N1)C(=O)N[C@@H](CCC(N)=O)C(=O)N1CCC[C@H]1C(=O)N[C@@H](Cc1ccccc1)C(=O)N1CCC[C@H]1C(=O)N[C@@H](CCC(N)=O)C(=O)N1CCC[C@H]1C(=O)N[C@@H](CCC(=O)O)C(=O)N[C@@H](CC(C)C)C(=O)N1CCC[C@H]1C(=O)N[C@@H](Cc1ccc(O)cc1)C(=O)N1CCC[C@H]1C(=O)N[C@@H](CCC(N)=O)C(=O)N1CCC[C@H]1C(=O)N[C@@H](CCC(N)=O)C(N)=O) [Peptide 1]”, for which the “relative activity among individual peptides tested” value is “most active of this group of related peptides”. Further, the “activity as a fraction of that of Peptide 14” value (three cytokine release assays) is “no more than two-thirds”.
